The assay has as its target Prostaglandin F2-alpha receptor (Bos taurus). The assay is described as follows: Inhibitory Binding constant (n=2) to Prostanoid FP receptor expressed in bovine corpus luteum.

Structures are written as SMILES.

For orientation: Ki means a dissociation constant, usually derived from enzyme kinetics or from competition with a known ligand. A high value points to lower affinity.

`O=C(O)CCC/C=C\C[C@@H]1[C@@H](/C=C/[C@@H](O)COc2cccc(Cl)c2)[C@H](O)CC[C@@H]1O` [7-{2-[4-(3-Chloro-phenoxy)-3-hydroxy-but-1-enyl]-3,6-dihydroxy-cyclohexyl}-hept-5-enoic acid]: affinity was put at a Ki of 1.9 µM.
Then `O=C(O)CCC/C=C\C[C@@H]1[C@@H](/C=C/[C@H](O)COc2cccc(Cl)c2)[C@H](O)CC[C@@H]1O` [7-{2-[4-(3-Chloro-phenoxy)-3-hydroxy-but-1-enyl]-3,6-dihydroxy-cyclohexyl}-hept-5-enoic acid], with 56 µM.

For the origin of these results see BindingDB's records for doi:10.1021/jm990587w (Alcon Laboratories, 2000).
